How the values were obtained:
[1] = system: mouse model with obesity caused by a high fat diet; assay: Change in body weight by autonomically drinking in mouse model with obesity caused by high fat diet; assay type: in vivo; conditions: for degree of body weight decrease as compared with HPBCD: autonomically drinking
Experimental: Male C57BL/6J mice (Five age of the week, KRIBB, Korea) were accommodated for 1 week, and then were induced with obesity by giving a high fat diet (60% fat kcal, Research Diets) for 15 days. The weights of the animals that were induced with obesity were equally divided into 3 animals as one group. And then, the solvent-control group drank sterilized distilled water, autonomically. Hydroxypropyl-β-cyclodextrin (HPBCD) was dissolved in sterilized distilled water to be 10, 15, and 20% (W/V) concentrations for drinking autonomically. A change in body weight was daily measured to all of animals during the test; the fixed amount of feeds was provided at the day of measuring body weight, and then an amount of intake per a group (g/day) was calculated by measuring a residual amount of feeds at the next day. A change in body weight was measured during the test using α-cyclodextrin (α-CD) instead of 2-hydroxypropyl-β-cyclodextrin (HPBCD) in the same method as the above <Example 1>.

[2] = system: high fat diet-mouse; assay: Change in body weight by oral administration in high fat diet-mouse; assay type: in vivo; conditions: for degree of body weight decrease as compared with HPBCD: method of Example 3 (oral)
Experimental: Male C57BL/6J mice (Five age of the week, KRIBB, Korea) were accommodated for 1 week. And then, the weights of the animals were equally divided into 5 animals as one group. While a high fat diet (60% fat kcal) was provided, sterilized distilled water and HPBCDs with 10, 20, and 40% (W/V) were orally administered at three times (Morning, Afternoon, Evening) a day for 5 days in 0.2 ml per 20 g body weight of a mouse at the same time. A change in body weight was measured to all of the animals during the test at one time per day; the fixed amount of feeds was provided at the day of measuring body weight, and then an average amount of intake per an animal (g/mouse/day) was calculated by measuring a residual amount of feeds at the next day.
A body weight was measured by using the same conditions as the above <Example 3>, except that BCDs with 10 and 20% (W/V) concentrations were used instead of HPBCDs with 10, 20, and 40% (W/V) concentrations.
A change in body weight was measured during the test using α-CD instead of HPBCD in the same method as the above <Example 3>.

[3] = system: mouse model with obesity caused by a high fat diet; assay: Change in body weight by autonomically drinking in mouse model with obesity caused by high fat diet; assay type: in vivo
[4] = system: high fat diet-mouse; assay: Change in body weight by oral administration in high fat diet-mouse; assay type: in vivo; conditions: Table 19, β-CD 15% (w/v) oral
[5] = system: mouse; conditions: cited from earlier work
[6] = system: human; conditions: cited from earlier work

## OC[C@H]1O[C@@H]2O[C@H]3[C@H](O)[C@@H](O)[C@@H](O[C@H]4[C@H](O)[C@@H](O)[C@@H](O[C@H]5[C@H](O)[C@@H](O)[C@@H](O[C@H]6[C@H](O)[C@@H](O)[C@@H](O[C@H]7[C@H](O)[C@@H](O)[C@@H](O[C@H]8[C@H](O)[C@@H](O)[C@@H](O[C@H]1[C@H](O)[C@H]2O)O[C@@H]8CO)O[C@@H]7CO)O[C@@H]6CO)O[C@@H]5CO)O[C@@H]4CO)O[C@@H]3CO [BCD, β-cyclodextrin]
[1]
  degree of body weight decrease as compared with HPBCD: low
[2]; 10 and 20% (W/V) oral
  increase in body weight as compared with the distilled water oral-administering group: suppressed
[2]; 10 and 20% (W/V) oral, Example 5
  body weight as compared with the initial body weight: not decreased
[2]; Table 15, BCD 10% (w/v) oral, 0 Day
  Body weight as percent of initial body weight: 100.0 ± 0.0%
[2]; Table 15, BCD 10% (w/v) oral, 1 Day
  Body weight as percent of initial body weight: 101.5 ± 2.1%
[2]; Table 15, BCD 10% (w/v) oral, 2 Day
  Body weight as percent of initial body weight: 100.7 ± 1.9 %
[2]; Table 15, BCD 10% (w/v) oral, 3 Day
  Body weight as percent of initial body weight: 102.0 ± 2.5 %
[2]; Table 15, BCD 10% (w/v) oral, 4 Day
  Body weight as percent of initial body weight: 102.4 ± 4.0 %
[2]; Table 15, BCD 10% (w/v) oral, 5 Day
  Body weight as percent of initial body weight: 103.4 ± 4.1 %
[2]; Table 15, BCD 20% (w/v) oral, 0 Day
  Body weight as percent of initial body weight: 100.0 ± 0.0%
[2]; Table 15, BCD 20% (w/v) oral, 1 Day
  Change in body weight (%): 100.3 ± 2.7 %
[2]; Table 15, BCD 20% (w/v) oral, 2 Day
  Body weight as percent of initial body weight: 102.1 ± 2.1 %
[2]; Table 15, BCD 20% (w/v) oral, 3 Day
  Body weight as percent of initial body weight: 103.1 ± 2.1 %
[2]; Table 15, BCD 20% (w/v) oral, 4 Day
  Body weight as percent of initial body weight: 103.7 ± 3.0 %
[2]; Table 15, BCD 20% (w/v) oral, 5 Day
  Body weight as percent of initial body weight: 103.2 ± 2.6 %
[2]; Table 19, β-CD 10% (w/v) oral, 0 Day
  Body weight as percent of initial body weight: 100.0 ± 0.0%
[2]; Table 19, β-CD 10% (w/v) oral, 1 Day
  Body weight as percent of initial body weight: 100.5 ± 0.8%
[2]; Table 19, β-CD 10% (w/v) oral, 2 Day
  Body weight as percent of initial body weight: 100.1 ± 1.3%
[2]; Table 19, β-CD 10% (w/v) oral, 3 Day
  Body weight as percent of initial body weight: 99.8 ± 1.2%
[2]; Table 19, β-CD 15% (w/v) oral, 2 Day
  Body weight as percent of initial body weight: 99.0 ± 1.4%
[2]; Table 19, β-CD 15% (w/v) oral, 3 Day
  Body weight as percent of initial body weight: 98.5 ± 1.0%
[2]; Table 19, β-CD 20% (w/v) oral, 0 Day
  Body weight as percent of initial body weight: 100.0 ± 0.0%
[2]; Table 19, β-CD 20% (w/v) oral, 1 Day
  Body weight as percent of initial body weight: 99.5 ± 1.1%
[2]; Table 19, β-CD 20% (w/v) oral, 2 Day
  Body weight as percent of initial body weight: 98.6 ± 0.8%
[2]; Table 19, β-CD 20% (w/v) oral, 3 Day
  Body weight as percent of initial body weight: 97.8 ± 1.3%
[2]
  degree of body weight decrease as compared with HPBCD: low
[2]; oral
  difference of effect between 10 and 20% (W/V): no significant difference
[3]; Table 18, β-CD 10% (w/v) autonomically drinking, 0 Day
  Change in body weight (%): 100.0 ± 0.0%
[3]; Table 18, β-CD 10% (w/v) autonomically drinking, 1 Day
  Change in body weight (%): 99.8 ± 0.8%
[3]; Table 18, β-CD 10% (w/v) autonomically drinking, 2 Day
  Change in body weight (%): 98.5 ± 1.3%
[3]; Table 18, β-CD 10% (w/v) autonomically drinking, 3 Day
  Change in body weight (%): 98.2 ± 1.2%
[3]; Table 18, β-CD 20% (w/v) autonomically drinking, 0 Day
  Change in body weight (%): 100.0 ± 0.0%
[3]; Table 18, β-CD 20% (w/v) autonomically drinking, 1 Day
  Change in body weight (%): 99.1 ± 1.2%
[3]; Table 18, β-CD 20% (w/v) autonomically drinking, 2 Day
  Change in body weight (%): 98.6 ± 1.2%
[3]; Table 18, β-CD 20% (w/v) autonomically drinking, 3 Day
  Change in body weight (%): 97.5 ± 1.0%
[3]; Table 18, β-CD 40% (w/v) autonomically drinking, 0 Day
  Change in body weight (%): 100.0 ± 0.0%
[3]; Table 18, β-CD 40% (w/v) autonomically drinking, 1 Day
  Change in body weight (%): 98.8 ± 1.1%
[3]; Table 18, β-CD 40% (w/v) autonomically drinking, 2 Day
  Change in body weight (%): 97.0 ± 0.8%
[3]; Table 18, β-CD 40% (w/v) autonomically drinking, 3 Day
  Change in body weight (%): 96.4 ± 1.3%
[4]; 0 Day
  Body weight as percent of initial body weight: 100.0 ± 0.0%
[4]; 1 Day
  Body weight as percent of initial body weight: 99.6 ± 1.2%
[5]
  antiobesity effect: suppress a weight increase
[6]
  antiobesity effect: reduce weight

## OC[C@H]1O[C@@H]2O[C@H]3[C@H](O)[C@@H](O)[C@@H](O[C@H]4[C@H](O)[C@@H](O)[C@@H](O[C@H]5[C@H](O)[C@@H](O)[C@@H](O[C@H]6[C@H](O)[C@@H](O)[C@@H](O[C@H]7[C@H](O)[C@@H](O)[C@@H](O[C@H]1[C@H](O)[C@H]2O)O[C@@H]7CO)O[C@@H]6CO)O[C@@H]5CO)O[C@@H]4CO)O[C@@H]3CO [α-CD, α-cyclodextrin]
[1]; Table 16, α-CD 10% (w/v) autonomically drinking, 2 Day
  Change in body weight (%): 100.6 ± 0.4%
[1]; Table 16, α-CD 15% (w/v) autonomically drinking, 1 Day
  Change in body weight (%): 99.8 ± 0.4%
[1]; Table 16, α-CD 15% (w/v) autonomically drinking, 2 Day
  Change in body weight (%): 99.3 ± 0.8%
[1]; Table 16, α-CD 20% (w/v) autonomically drinking, 1 Day
  Change in body weight (%): 99.8 ± 0.8%
[1]; Table 16, α-CD 20% (w/v) autonomically drinking, 2 Day
  Change in body weight (%): 99.0 ± 1.4%
[1]
  degree of body weight decrease as compared with HPBCD: low
[2]; Table 17, α-CD 10% (w/v) oral, 0 Day
  Body weight as percent of initial body weight: 100.0 ± 0.0%
[2]; Table 17, α-CD 10% (w/v) oral, 1 Day
  Body weight as percent of initial body weight: 101.3 ± 0.4%
[2]; Table 17, α-CD 10% (w/v) oral, 2 Day
  Body weight as percent of initial body weight: 100.5 ± 1.6%
[2]; Table 17, α-CD 10% (w/v) oral, 3 Day
  Body weight as percent of initial body weight: 100.2 ± 2.7%
[2]; Table 17, α-CD 20% (w/v) oral, 0 Day
  Body weight as percent of initial body weight: 100.0 ± 0.0%
[2]; Table 17, α-CD 20% (w/v) oral, 1 Day
  Body weight as percent of initial body weight: 99.8 ± 0.8%
[2]; Table 17, α-CD 20% (w/v) oral, 2 Day
  Body weight as percent of initial body weight: 99.5 ± 1.2%
[2]; Table 17, α-CD 20% (w/v) oral, 3 Day
  Body weight as percent of initial body weight: 99.2 ± 1.0%
[2]; Table 17, α-CD 40% (w/v) oral, 0 Day
  Body weight as percent of initial body weight: 100.0 ± 0.0%
[2]; Table 17, α-CD 40% (w/v) oral, 1 Day
  Body weight as percent of initial body weight: 99.6 ± 1.0%
[2]; Table 17, α-CD 40% (w/v) oral, 2 Day
  Body weight as percent of initial body weight: 99.0 ± 1.2%
[2]; Table 17, α-CD 40% (w/v) oral, 3 Day
  Body weight as percent of initial body weight: 98.2 ± 1.3%
[2]
  degree of body weight decrease as compared with HPBCD: low
[3]; Table 16, α-CD 10% (w/v) autonomically drinking, 0 Day
  Change in body weight (%): 100.0 ± 0.0%
[3]; Table 16, α-CD 10% (w/v) autonomically drinking, 1 Day
  Change in body weight (%): 100.2 ± 0.2%
[3]; Table 16, α-CD 10% (w/v) autonomically drinking, 3 Day
  Change in body weight (%): 100.1 ± 1.4%
[3]; Table 16, α-CD 15% (w/v) autonomically drinking, 0 Day
  Change in body weight (%): 100.0 ± 0.0%
[3]; Table 16, α-CD 15% (w/v) autonomically drinking, 3 Day
  Change in body weight (%): 98.9 ± 1.1%
[3]; Table 16, α-CD 20% (w/v) autonomically drinking, 0 Day
  Change in body weight (%): 100.0 ± 0.0%
[3]; Table 16, α-CD 20% (w/v) autonomically drinking, 3 Day
  Change in body weight (%): 98.5 ± 1.3%

Source: patent US8975241B2, “Composition for treating and preventing obesity including high water-soluble 2-hydroxypropyl-betacyclodextrin as effective component” (Song Ho Biomed Co., Ltd., priority 2009, dated 2015)
